This data set in a line: refractive index (Na D-line) (dimensionless). The conditions noted are these: 293.15 K; 101.33 kPa; Liquid; Standard Abbe refractometry.

Each structure is given as a SMILES string. Numbers after ± are expanded uncertainties.

Take `CC(=O)OC(C)C` [1-methylethyl ethanoate]: the refractive index (in general, a measure of how strongly the sample bends light) came to 1.3772 ± 0.0008.

For `CC(=O)O` [acetic acid], the refractive index was found to be 1.3719 ± 0.0007.

For the molecule `CCCCCOC(C)=O` [pentyl ethanoate], the refractive index is listed as 1.4021 ± 0.0008.

Regarding `O` [water], the refractive index amounted to 1.333 ± 0.0008.

(Values after the NIST ThermoML archive (doi:10.1021/je049711t).)
